Common to all, as to assay type: functional
Conditions in all cases: Enterobacteria phage phiX174

Test [1] has as its system Nucleic Acid. Description: Percent DNA cleavage induced by administering the compound (0.1 uM) within 24 hr to form RfI DNA was determined by using phiX174 bacteriophage DNA.
Test [2] deals with Nucleic Acid. As to the kind of experiment: Percent DNA cleavage induced by administering the compound (0.1 uM) within 48 hr to form RfIII DNA was determined by using phiX174 bacteriophage DNA.
In test [3] the test system is Nucleic Acid. Description: Percent DNA cleavage induced by administering the compound (0.1 uM) within 24 hr to form RfII DNA was determined by using phiX174 bacteriophage DNA.
For test [4], the system named is Nucleic Acid. As to the kind of experiment: Percent DNA cleavage induced by administering the compound (0.1 uM) within 24 hr to form RfIII DNA was determined by using phiX174 bacteriophage DNA.
In test [5] the test system is Nucleic Acid. Description: Percent DNA cleavage induced by administering the compound (0.1 uM) within 48 hr to form RfI DNA was determined by using phiX174 bacteriophage DNA.
The subject of test [6] is Nucleic Acid. As to the kind of experiment: Percent DNA cleavage induced by administering the compound (0.1 uM) within 48 hr to form RfII DNA was determined by using phiX174 bacteriophage DNA.
The test system of test [7] is Nucleic Acid. As to the kind of experiment: Percent DNA cleavage induced by administering the compound (0.1 uM), additive Ar/N2 within 12 hr to form RfII DNA was determined by using phiX174 bacteriophage DNA.
The subject of test [8] is Nucleic Acid. As to the kind of experiment: Percent DNA cleavage induced by administering the compound (0.1 uM), additive Ar/N2 within 12 hr to form RfIII DNA was determined by using phiX174 bacteriophage DNA.
Test [9] relates to Nucleic Acid. Description: Percent DNA cleavage induced by administering the compound (0.1 uM), additive 1000 uM distamycin A within 24 hr to form RfI DNA was determined by using phiX174 bacteriophage DNA.
In test [10] the test system is Nucleic Acid. Description: Percent DNA cleavage induced by administering the compound (0.1 uM), additive 100 uM distamycin A within 24 hr to form RfII DNA was determined by using phiX174 bacteriophage DNA.
Test [11] relates to Nucleic Acid. As to the kind of experiment: Percent DNA cleavage induced by administering the compound (0.1 uM), additive 100 uM distamycin A within 24 hr to form RfI DNA was determined by using phiX174 bacteriophage DNA.
The test system of test [12] is Nucleic Acid. Description: Percent DNA cleavage induced by administering the compound (0.1 uM), additive 10 uM distamycin A within 24 hr to form RfII DNA was determined by using phiX174 bacteriophage DNA.
Test [13] has as its system Nucleic Acid. Description: Percent DNA cleavage induced by administering the compound (0.1 uM), additive 1000 uM distamycin A within 24 hr to form RfIII DNA was determined by using phiX174 bacteriophage DNA.
For test [14], the system named is Nucleic Acid. As to the kind of experiment: Percent DNA cleavage induced by administering the compound (0.1 uM), additive 1000 uM distamycin A within 24 hr to form RfII DNA was determined by using phiX174 bacteriophage DNA.
Test [15] concerns Nucleic Acid. Description: Percent DNA cleavage induced by administering the compound (0.1 uM), additive 10 mM aliquots of metal chlorides M2+/3- within 12 hr to form RfII DNA was determined by using phiX174 bacteriophage DNA.
The subject of test [16] is Nucleic Acid. Description: Percent DNA cleavage induced by administering the compound (0.1 uM), additive 10 mM aliquots of metal chlorides M2+/3- within 12 hr to form RfIII DNA was determined by using phiX174 bacteriophage DNA.
Test [17] has as its system Nucleic Acid. As to the kind of experiment: Percent DNA cleavage induced by administering the compound (0.1 uM), additive 100 uM distamycin A within 24 hr to form RfIII DNA was determined by using phiX174 bacteriophage DNA.
The test system of test [18] is Nucleic Acid. As to the kind of experiment: Percent DNA cleavage induced by administering the compound (0.1 uM), additive Ar/N2 within 12 hr to form RfI DNA was determined by using phiX174 bacteriophage DNA.
In test [19] the test system is Nucleic Acid. Description: Percent DNA cleavage induced by administering the compound (0.1 uM), additive 10 uM distamycin A within 24 hr to form RfIII DNA was determined by using phiX174 bacteriophage DNA.
The subject of test [20] is Nucleic Acid. As to the kind of experiment: Percent DNA cleavage induced by administering the compound (0.1 uM), additive 10 mM aliquots of metal chlorides M2+/3- within 12 hr to form RfI DNA was determined by using phiX174 bacteriophage DNA.
The test system of test [21] is Nucleic Acid. As to the kind of experiment: Percent DNA cleavage induced by administering the compound (0.1uM), additive 10 uM distamycin A within 24 hr to form RfI DNA was determined by using phiX174 bacteriophage DNA.
In test [22] the test system is Nucleic Acid. As to the kind of experiment: Percent DNA cleavage induced by administering the compound (0.1 uM) within 12 hr to form RfIII DNA was determined by using phiX174 bacteriophage DNA.
The subject of test [23] is Nucleic Acid. Description: Percent DNA cleavage induced by administering the compound (0.1 uM) within 12 hr to form RfII DNA was determined by using phiX174 bacteriophage DNA.
In test [24] the test system is Nucleic Acid. As to the kind of experiment: Percent DNA cleavage induced by administering the compound (0.1 uM) within 12 hr to form RfI DNA was determined by using phiX174 bacteriophage DNA.
The subject of test [25] is Nucleic Acid. Description: Percent DNA cleavage induced by administering the compound (0.1 uM) within 24hto form RfIII DNA was determined by using phiX174 bacteriophage DNA.
For test [26], the system named is Nucleic Acid. As to the kind of experiment: Percent DNA cleavage induced by administering the compound (1.0 uM) within 12 hr to form RfIII DNA was determined by using phiX174 bacteriophage DNA by using phiX174 bacteriophage DNA.
For test [27], the system named is Nucleic Acid. As to the kind of experiment: Percent DNA cleavage induced by administering the compound within 12 hr to form RfI DNA was determined by using phiX174 bacteriophage DNA.
The test system of test [28] is Nucleic Acid. Description: Percent DNA cleavage induced by administering the compound (1.0 uM) within 12 hr to form RfII DNA was determined by using phiX174 bacteriophage DNA.
Test [29] relates to Nucleic Acid. As to the kind of experiment: Percent DNA cleavage induced by administering the compound (1.0 uM) within 12 hr to form RfIII DNA was determined by using phiX174 bacteriophage DNA.
Test [30] deals with Nucleic Acid. As to the kind of experiment: Percent DNA cleavage induced by administering the compound (1.0 uM) within 12 hr to form RfI DNA was determined by using phiX174 bacteriophage DNA.
The subject of test [31] is Nucleic Acid. As to the kind of experiment: Percent DNA cleavage induced by administering the compound (1.0 uM) within 48 hr to form RfI DNA was determined by using phiX174 bacteriophage DNA.
For test [32], the system named is Nucleic Acid. As to the kind of experiment: Percent DNA cleavage induced by administering the compound (1.0 uM) within 48 hr to form RfIII DNA was determined by using phiX174 bacteriophage DNA.
For test [33], the system named is Nucleic Acid. Description: Percent DNA cleavage induced by administering the compound (1.0 uM) within 48 hr to form RfII DNA was determined by using phiX174 bacteriophage DNA.

Structures are written as SMILES. Values joined by “and” are separate entries in the source; they are usually repeats but may differ in a detail not shown here. Identical values can stand only once.

`Nc1cccc(C(=O)Nc2cc(NC(=O)c3ccccc3)cc(C(=O)NCCNC(=O)c3cc(NC(=O)c4ccccc4)cc(NC(=O)c4cccc(N)c4)c3)c2)c1`: the Cleavage in [1] came out at 35%; in test [2] it was 0%; in [3], 65%; in [4], 0%; in test [5], 7%; in [6] it was 93%.
`Nc1cc(C(=O)Nc2cc(NC(=O)c3ccccc3)cc(C(=O)NCCNC(=O)c3cc(NC(=O)c4ccccc4)cc(NC(=O)c4cc(N)cc([N+](=O)[O-])c4)c3)c2)cc([N+](=O)[O-])c1`: the Cleavage in [1] was found to be 36%; in test [2], 0%; in test [3], 64%; in test [4] it was 0%; in test [5], 10%; in [6], 90%.
In the case of `Nc1cccc(C(=O)Nc2cc(NC(=O)c3ccccc3)cc(C(=O)NCCCNC(=O)c3cc(NC(=O)c4ccccc4)cc(NC(=O)c4cccc(N)c4)c3)c2)c1`, the Cleavage in test [1] was found to be 24%; in test [7] it was 74%; in [8] it was 0%; in [2], 0%; in test [3], 76%; in test [4], 0%. The Cleavage was found to be 95% in test [9]; 35% in test [10]; 65% in [11]; 75% in [12]; 0% in test [13]; 5% in test [14]. The Cleavage in test [15] worked out at 73%; in test [5], 1%; in [6] it was 99%; in test [16], 0%; in test [17], 0%; in [18], 26%. Also, the Cleavage in [19] amounted to 0%; in test [20] it was 27%; in test [21] it was 25%.
Regarding `Nc1cccc(C(=O)Nc2cc(NC(=O)c3ccccc3)cc(C(=O)NCCCCNC(=O)c3cc(NC(=O)c4ccccc4)cc(NC(=O)c4cccc(N)c4)c3)c2)c1`, the Cleavage in [22] was found to be 0%; in test [23], 63%; in [24], 37%.
In the case of `COc1cc(N)cc(C(=O)Nc2cc(NC(=O)c3ccccc3)cc(C(=O)NCCNC(=O)c3cc(NC(=O)c4ccccc4)cc(NC(=O)c4cc(N)cc(OC)c4)c3)c2)c1`, in test [25], the Cleavage is 0% and 1%.
Consider `Nc1cccc(C(=O)Nc2cc(NC(=O)c3ccccc3)cc(C(=O)NCCCCCNC(=O)c3cc(NC(=O)c4ccccc4)cc(NC(=O)c4cccc(N)c4)c3)c2)c1`, for which the Cleavage in test [1] was determined as 35%; in test [3] it was 65%; in [4], 0%.
For `Nc1cccc(C(=O)Nc2cc(NC(=O)c3ccccc3)cc(C(=O)NCNC(=O)c3cc(NC(=O)c4ccccc4)cc(NC(=O)c4cccc(N)c4)c3)c2)c1`, the Cleavage in test [1] was determined as 0%; in test [3] it was 100%; in [4] it was 0%.
For the compound `CCOC(=O)c1cc(N)cc([N+](=O)[O-])c1`, the figures for the Cleavage in test [26], in test [27] and in [28] were 0%, 90% and 10%, respectively.
Turning to `CCOC(=O)c1cc(NC(=O)c2cccc([N+](=O)[O-])c2)cc(NC(=O)c2cc(N)cc([N+](=O)[O-])c2)c1`, the Cleavage in test [29] came to 0%; in [30], 44%; in test [28], 56%.
In the same order, the values of `CCOC(=O)c1cc(NC(=O)c2cc(N)cc(OC)c2)cc(NC(=O)c2cccc([N+](=O)[O-])c2)c1` are 0%, 11% and 89%.
Turning to `CCOC(=O)c1cc(NC(=O)c2cccc(N)c2)cc(NC(=O)c2cccc([N+](=O)[O-])c2)c1`, the Cleavage in [29] worked out at 0%; in [31], 0%; in test [32], 25%; in test [30], 1%; in test [28], 99%; in [33], 75%.
Regarding `Nc1cccc(C(=O)Nc2cc(NC(=O)c3ccccc3)cc(C(=O)NCCCCCCNC(=O)c3cc(NC(=O)c4ccccc4)cc(NC(=O)c4cccc(N)c4)c3)c2)c1`, the Cleavage in test [22] turned out to be 0%; in [23] it was 62%; in test [24] it was 38%.

For the origin of these results see ChEMBL document CHEMBL1135084, “DNA cleavage by aromatic amines” (Bioorg Med Chem Lett, 2002).
